Assay results taken from PMC10746103, “Development of a HPLC-MS/MS Method to Assess the Pharmacokinetics and Tumour Distribution of the Dimethylarginine Dimethylaminohydrolase 1 Inhibitors ZST316 and L-257 in a Xenograft Model of Triple-Negative Breast Cancer in Mice” (Molecules, 2023).
Several values for one entry are separate records, joined by “and”; a condition that tells them apart may be missing. Equal values may be shown once. Entries after “also recorded” stand apart in the source; their conditions may differ. Read-outs that look alike come from different tables or passages of the source.

Legend:
[1] = Plasma pharmacokinetics of ZST316 and L-257 after intraperitoneal ZST316 in MDA-MB-231 xenograft mice (HPLC-MS/MS); type: in vivo, SCID mice
Procedure: (§1) Six-week-old female severe combined immunodeficiency disease (SCID) mice (n = 24; Charles River Laboratories Italia S.r.L., Calco, Lecco, Italy), were housed under rigorous standards and handled under pathogen-free conditions in the Animal Care Facilities of the Mario Negri Institute for Pharmacological Research (Milan, Italy).
(§2) Two ×10^6 (in 10 μL) MDA-MB-231 TNBC cells were transplanted into the mammary fat pad. Tumour growth was regularly monitored with a calliper and treatment with ZST316 was given when the tumour volume reached 400–500 mm^3. Mice received either a single dose (acute treatment) or a daily dose of ZST316 30 mg/Kg intraperitoneally for five days (chronic treatment).
(§3) Plasma and tumour tissue (n = 3 mice/each time point) were sampled at 1, 8 and 24 h after treatment (on day 5 for the chronic treatment). To collect plasma, mice were anesthetized by isoflurane, the blood was drained from the retro-orbital plexus into heparinised tubes and centrifuged for 10 min at 4000× g at 4 °C. Tumours were collected and immediately frozen. Plasma and tumour samples were stored at −20 °C until analysis.
To assay ZST316 and L-257, 10 μL of IS (ZST152 WS: 500 ng/mL) were added to 100 μL of study plasma samples, standards, and QCs in a polypropylene tube. The samples were then added with 10 μL of NH4COOH 50 mM, mixed and added with 400 μL CH3OH:0.1% HCOOH, vortex mixed again and centrifuged at 13,200 rpm for 10 min at 4 °C. The supernatant was transferred to a 1.5 mL Eppendorf tube, dried under nitrogen flow and reconstituted with 100 μL of mobile phase (MP) A:B (1:1, v/v). Finally, the samples were centrifuged at 13,200 rpm for 10 min at 4 °C and the supernatant transferred into vials for HPLC-MS/MS analysis.
(§4) Reversed-phase chromatography was performed under gradient conditions with separation on a HILIC column, C18, 3 μm, 100 A, 2.1 × 150 mm, Waters (Milford, MA, USA), coupled with a 3 μm, 3.9 × 5.0 mm guard column of the same material at the flow rate of 0.2 mL/min. Gradient features were: 10% mobile phase (MP) A (NH4HCO2 10 mM, 10% CH3CN, 0.1% HCOOH) and 90% MP B (CH3CN, 0.1% HCOOH) as initial constant condition; then to 90% MP A in 6 min and constant condition for 1.5 min. Return to start condition in 0.5 min and conditioning for 5.5 min. Total run time: 13.5 min. Analyte detection and quantification were performed using tandem mass spectrometry (MS/MS) operating in positive ionization mode as previously reported for ZST316 and ZST152 [31].

[2] = Tumour distribution of ZST316 and L-257 after intraperitoneal ZST316 in MDA-MB-231 TNBC xenograft (HPLC-MS/MS); type: in vivo, SCID mice; conditions: for time intra-tumour concentration remained above the IC50 and Ki values for DDAH1 inhibition: estimated
Procedure: as §1, §2, §3
Control MDA-MB-231 TNBC cell tumours were homogenized with NH4COOH 50 mM (1:4, w:v). The homogenate (90 μL) was spiked with 5 μL of ZST316 and L-257 working solutions prepared in the range of 100–10,000 ng/mL generating seven tumour calibration standards in the range 25–5000 ng/g. The calibration curve included also a blank and a zero blank standard plasma sample (processed with IS). To prepare QC samples, 90 μL of the homogenate was mixed with an appropriate amount of QC working solutions to obtain QC plasma samples at the nominal concentration of 75, 375, and 1250 ng/g.
The procedure was similar to that described for plasma in Section 3.3.2.
as §4

[3] = Stability of ZST316 and L-257 in frozen plasma; type: in vitro ADME, mice; conditions: for Mean found value, Stability −20 °C / Accuracy (%), Stability −20 °C: plasma QC, one month at −20 °C; for Mean found value, Stability −20 °C: n=3; for Accuracy (%), Stability −20 °C: percent of nominal
Procedure: The stability of ZST316 and L-257 in plasma was assessed by analysing QC samples containing both compounds after prolonged storage in the same conditions of the study samples.
Stability was determined by analysing 3 QCs per concentration level immediately after the preparation, and 3 QCs per concentration level after one month of storage at −20 °C. The analytes were considered stable at each QC concentration when the freshly prepared samples and the stability test samples differed by no more than 15% from the nominal concentrations.

[4] = Tolerability of chronic intraperitoneal ZST316 treatment; type: in vivo; conditions: ZST316 30 mg/Kg i.p. daily for five days
Procedure: as §2

[5] = biological target: DDAH1; conditions: cited from earlier work
[6] = design: method as in PMID 35164277; conditions: four-week-old FVB mice; oral, intravenous and intraperitoneal administration; cited from earlier work
[7] = acute (single dose) ZST316 30 mg/Kg i.p., 1 h
[8] = acute ZST316 30 mg/Kg i.p., 1 h, 30 mg/kg
[9] = acute ZST316 30 mg/Kg i.p., 8 h, 30 mg/kg
[10] = acute ZST316 30 mg/Kg i.p., 8 h, n=3, 30 mg/kg
[11] = acute ZST316 30 mg/Kg i.p., 24 h, 30 mg/kg
[12] = acute ZST316 30 mg/Kg i.p., approximately estimated due to limited time points
[13] = chronic (five-day) ZST316 30 mg/Kg i.p. daily, 1 h
[14] = chronic (five-day) ZST316 30 mg/Kg i.p. daily, 24 h
[15] = chronic ZST316 30 mg/Kg i.p. daily
[16] = chronic ZST316 30 mg/Kg i.p. daily, day 5, 1 h, 30 mg/kg
[17] = chronic ZST316 30 mg/Kg i.p. daily, day 5, 8 h, 30 mg/kg
[18] = chronic ZST316 30 mg/Kg i.p. daily, day 5, 8 h, n=3, 30 mg/kg
[19] = chronic ZST316 30 mg/Kg i.p. daily, day 5, 24 h, 30 mg/kg
[20] = chronic ZST316 30 mg/Kg i.p. daily, approximately estimated due to limited time points
[21] = range over acute and chronic treatment

In the case of `COCCNC(N)=NCCC[C@H](N)C(=O)NS(C)(=O)=O` [ZST316], the “accumulation in plasma and tumour during chronic treatment” value ([1]; ZST316 30 mg/Kg i.p. daily for five days, day 5 vs day 1, 30 mg/kg) is reported as “without accumulation; also recorded: No accumulation”, the mean plasma concentration [1, 7] is reported as 2.79 µg/mL and the mean plasma concentration ([1]; acute (single dose) ZST316 30 mg/Kg i.p., 24 h, 30 mg/kg) is reported as 0.05 µg/mL and 0.04 µg/mL. The Cmax ([1]; acute ZST316 30 mg/Kg i.p.) was 9.03 µM, the Cmax plasma ([1]; acute ZST316 30 mg/Kg i.p.) was 2790 ng/mL and the “Plasma AUC1–24 h” value ([1]; acute ZST316 30 mg/Kg i.p.) was 0.050. For the same compound, the “Plasma AUC1–24 h” value ([1]; acute ZST316 30 mg/Kg i.p. (day 1)) was 15.3 µg·h/mL, the “plasma concentration, individual mice” value [1, 8] was 3000 ng/mL and 2150 ng/mL and 3210 ng/mL and 9.70 µM and 6.95 µM and 10.38 µM and the “plasma concentration, individual mice” value [1, 9] was 162 ng/mL and 147 ng/mL and 0.38 µM and 0.52 µM and 0.48 µM and 119 ng/mL. For the same compound, the mean plasma concentration [1, 10] was 143 ng/mL and 0.46 μM, the “plasma concentration, individual mice” value [1, 11] was 64.2 ng/mL and 53.7 ng/mL and 25 ng/mL and 0.21 µM and 0.17 µM and 0.08 µM and the half-life plasma [1, 12] was 4.4 h. For the same compound, the mean plasma concentration [1, 13] was 2.22 µg/mL, the mean plasma concentration [1, 14] was 0.12 µg/mL and the Cmax [1, 15] was 7.18 µM. The Cmax plasma [1, 15] was 2220 ng/mL, the “Plasma AUC1–24 h” value [1, 15] was 0.040 and the “Plasma AUC1–24 h” value ([1]; chronic ZST316 30 mg/Kg i.p. daily (day 5)) was 12.4 µg·h/mL. For the same compound, the “plasma concentration, individual mice” value [1, 16] was 2440 ng/mL and 2030 ng/mL and 2200 ng/mL and 7.89 µM and 6.57 µM and 7.12 µM, the “plasma concentration, individual mice” value [1, 17] was 81.7 ng/mL and 54.7 ng/mL and 41.8 ng/mL and 0.26 µM and 0.18 µM and 0.14 µM and the mean plasma concentration [1, 18] was 59.4 ng/mL and 0.19 μM. The “plasma concentration, individual mice” value [1, 19] was 101 ng/mL and 173 ng/mL and 86.3 ng/mL and 0.33 µM and 0.56 µM and 0.28 µM, the half-life plasma [1, 20] was 7.1 h and the “half-life plasma” value [1, 21] was 4.4 to 7.1 h. The “measured concentration in unknown study plasma sample (Figure 2)” value ([1]; representative chromatogram, sample taken at 1 h after acute treatment (b8)) was 2200 ng/mL, the mean intra-tumour concentration [2, 7] was 2.0 µg/g and the mean intra-tumour concentration ([2]; acute (single dose) ZST316 30 mg/Kg i.p., 24 h) was 0.04 µg/g. For the same compound, the “tumour AUC” value ([2]; acute ZST316 30 mg/Kg i.p.) was 11.4 µg·h/g, the Cmax tumour ([2]; acute ZST316 30 mg/Kg i.p., 30 mg/kg) was 2.00 μg/g and 6.47 μM and the “tumour concentration, individual mice” value [2, 8] was 2470 ng/g and 1210 ng/g and 2320 ng/g and 7.99 µM and 3.91 µM and 7.50 µM. The “tumour concentration, individual mice” value [2, 9] was 109 ng/g and 173 ng/g and 0.48 µM and 0.35 µM and 0.56 µM and 149 ng/g, the mean tumour concentration [2, 10] was 144 ng/g and 0.46 μM and the “tumour concentration, individual mice” value [2, 11] was 37.3 ng/g and 32.2 ng/g and 49.0 ng/g and 0.12 µM and 0.10 µM and 0.16 µM. The half-life tumour [2, 12] was 4.5 h, the “time intra-tumour concentration remained above the IC50 and Ki values for DDAH1 inhibition” value ([2]; after acute ZST316 treatment) was 15.5 h and the “time intra-tumour concentration remained above the IC50 and Ki values for DDAH1 inhibition” value ([2]; after chronic ZST316 treatment) was 16.5 h. For the same compound, the mean intra-tumour concentration [2, 13] was 2.09 µg/g, the mean intra-tumour concentration [2, 14] was 0.06 µg/g and the “tumour AUC” value [2, 15] was 11.8 µg·h/g. For the same compound, the “tumour concentration, individual mice” value [2, 16] was 2490 ng/g and 1750 ng/g and 2020 ng/g and 8.05 µM and 5.66 µM and 6.53 µM, the “tumour concentration, individual mice” value [2, 17] was 110 ng/g and 146 ng/g and 0.39 µM and 0.36 µM and 0.47 µM and 120 ng/g and the mean tumour concentration [2, 18] was 125 ng/g and 0.41 μM. The mean tumour concentration ([2]; chronic ZST316 30 mg/Kg i.p. daily, day 5, 24 h) was 57.0 ng/g, the “tumour concentration, individual mice” value [2, 19] was 37.8 ng/g and 108 ng/g and 25.2 ng/g and 0.12 µM and 0.35 µM and 0.08 µM and the mean tumour concentration ([2]; chronic ZST316 30 mg/Kg i.p. daily, day 5, 24 h, n=3) was 0.18 µM. For the same compound, the Cmax tumour ([2]; chronic ZST316 30 mg/Kg i.p. daily, 30 mg/kg) was 2.09 μg/g and 6.76 μM, the half-life tumour [2, 20] was 5.0 h and the “half-life tumour” value [2, 21] was 4.5 to 5.0 h. For the same compound, the “measured concentration in unknown study tumour sample (Figure 3)” value ([2]; representative chromatogram, sample taken at 24 h after acute treatment (b8)) was 37.3 ng/g, the “stability in frozen plasma” value ([3]; at least one month at −20 °C) was “stable” and the “Mean found value, Stability −20 °C” value ([3]; actual value 15.00 ng/mL) was 14.3 ng/mL. For the same compound, the “Accuracy (%), Stability −20 °C” value ([3]; actual value 15.00 ng/mL) was 95.4%, the “Mean found value, Stability −20 °C” value ([3]; actual value 75.00 ng/mL) was 72.4 ng/mL and the “Accuracy (%), Stability −20 °C” value ([3]; actual value 75.00 ng/mL) was 96.5%. The “Mean found value, Stability −20 °C” value ([3]; actual value 250.00 ng/mL) was 240.0 ng/mL, the “Accuracy (%), Stability −20 °C” value ([3]; actual value 250.00 ng/mL) was 96.0% and the “tolerability / signs of toxicity” value [4] was “well tolerated, and no signs of toxicity were recorded”. The “Ki expressed as concentration” value ([5]; equivalent of 261 nM, personal data) was 0.0803 µg/mL, the Ki ([5]; original value) was 1000 nM and the Ki ([5]; revised using a more performant assay, personal data) was 261 nM. The tolerability [6] was “excellent tolerability”.
